Data from a melting point compilation (Tetko et al.; mined from patent text by program, amines drawn as free bases though some values may be those of a salt).

SMILES	melting point [°C]
COc1ccc(C(=O)/C=C/N(C)C)cc1COC(=O)C(C)(C)C	82 to 84
Cc1ccccc1-c1c(NC(=O)Nc2ccc(F)cc2F)c(=O)oc2cc3c(cc12)CCC3	223 to 224
CC1(C)COC(c2ccccc2-c2ccc(CO)cc2)=N1	97 to 100
CCC1(CCCCl)C(=O)Nc2ccccc21 (stereo unspecified)	91 to 93
O=C1CCC(N2C(=O)c3cccc(NCc4cccc(Cl)c4)c3C2=O)C(=O)N1 (stereo unspecified)	207 to 209
CC(C)C(C)(N)C(N)=O (single isomer, unassigned; (+))	74.5 to 76
CC(C)Oc1ccc(Nc2ccc(N=C=O)cc2C(F)(F)F)cc1C(F)(F)F	102 to 105
COc1ccc(Br)cc1O	62 to 64
Cc1nc(-n2ccc(OCC3CCCO3)cc2=O)sc1C(=O)NCc1ccccc1 (stereo unspecified)	181 to 183
CCCCCCCCC=CCCCCCCCCCCCC(=O)NC(=O)CN	128 to 130
COC(=O)c1c(-c2ccc(F)cc2)c2cc(OCc3ccccc3)ccc2c(=O)n1CC(C)C	118 to 119
CCOC(=O)CC1NCCN(CCc2c[nH]c3ccccc23)C1=O (stereo unspecified)	80
CCOc1cc2c(c3c1OC(C)(C)C3)C(c1cccc(C(=O)NCC(N)=O)c1)=NC(C)(C)C2	127 to 128
COCCOc1cc(/C=C/C(=O)O)n(Cc2ccc(Cl)cc2Cl)n1	171 to 172
COC(=O)C1=C(C)NC(C)=C(C(=O)OCCN2CCN(C(c3ccc(F)cc3)c3ccc(F)cc3)CC2)C1c1cccc([N+](=O)[O-])c1 (stereo unspecified)	68 to 72
CC(O)c1ccc(-c2ccc(OCc3ccccc3)cc2)cc1 (single isomer, unassigned; (+))	158 to 159
CC(C)Oc1ccc(CCCOc2nn(C)cc2CC(=O)O)c(OCc2ccc(Cl)cc2Cl)c1	102 to 103
c1cnc2c(c1)-c1nc(NC3CCNCC3)ncc1-c1ccncc1N2	189 to 191
O=C(Nc1ccc(OC(F)(F)F)cc1)NC1CCN(C(=O)c2cc(O)c(O)c(O)c2)CC1	168 to 175
O=C(Oc1cc(OC(=O)c2ccccc2)c(C(=O)C=Cc2ccc(O)cc2)c(OC(=O)c2ccccc2)c1)c1ccccc1	198 to 200
COc1cccc(CNc2ncnc3c2sc2nc(N(C)C)c4c(c23)CC(C)(C)CC4)c1OC	91.9 to 93
O=C(O)c1cc(-n2cccc2)cc(C(F)(F)F)c1	191 to 192
Cc1cc(-c2cc(C(F)(F)F)nc(-c3ccnc(-c4ccc(S(N)(=O)=O)s4)c3)n2)ccc1Cl	280
COC(=O)c1cc2cccc(C=O)c2[nH]1	87

SMILES	melting point [°C]
CC1CC(c2ccccc2)(N(C)C)CCC1=O (stereo unspecified)	50
Cc1ncn(-c2ccc(C#N)c(F)c2)n1	133 to 134
CCn1cc(C(=O)O)c(=O)c2cc(F)c(-c3csc(CN)n3)c(F)c21	199 to 203
O=C(NCc1ccc(Cl)cc1)c1cn2c3c(cc(CN4CCOCC4)cc3c1=O)OC(CN1CCCCC1)C2 (stereo unspecified)	213 to 215
O=C(O)Cn1cc(Cc2nc3c(F)c(F)cc(F)c3s2)c2ccc(N3CCOCC3)cc21	178 to 180
O=C(CCc1cccc([N+](=O)[O-])c1)Nc1ccc(Nc2ccccc2)cc1	130 to 132
CC(C(=O)O)c1ccc2c(c1)Sc1ncccc1CC2=O (stereo unspecified)	150 to 151
O=C(c1ccccc1)C(CCCCl)c1ccccc1 (stereo unspecified)	72 to 74
COC(=O)[C@H]1CC[C@H](NC(=O)c2cc(-c3ccc(C#N)cc3)nn(Cc3ccccc3)c2=O)CC1	217 to 220
CCCc1nc2c(N)nc3cc(OCCCNC(=O)OC(C)(C)C)ccc3c2s1	146 to 149
NC(=O)[C@H]1CCCN2CC[C@@H]3c4cc(Cl)ccc4N[C@@H]3[C@H]12 (racemic)	270
COc1cc(Nc2c(C#N)cnc3cc(-c4cccc([N+](=O)[O-])c4)ccc23)c(Cl)cc1Cl	287 to 288
O=C1C(O)=C(Br)C(=O)c2ccc(F)cc21	183
NCc1cccc2nnsc12	136 to 139
O=C1CC(c2cccc(-n3ccnn3)c2)=Nc2ccc(-c3cc(F)ccc3F)cc2N1	231
CNC(=O)c1cnn(-c2ccc(Cl)cc2C(F)(F)F)c1C#N	162 to 164
CN(C)C(=O)C1CC(=O)N(c2cc(C(F)(F)F)cc(C(F)(F)F)c2)C1 (stereo unspecified)	84.5 to 86
COC(=O)C(CCCCNC(=O)COCc1ccccc1)NC(=O)COCc1ccccc1 (stereo unspecified)	62 to 65
C(=C\c1nc(COc2ccc(CCCn3cncn3)cc2)co1)/c1ccccc1	108 to 109
CCCCOCCCNC(=O)c1cnc(C(=O)NCC(=O)OCCCC)c(OC)c1	115 to 117
CC(C)(C)C(=O)C(=C1SCCS1)n1cncn1	141
N=C(N)NCCc1ccc(OCCC2Oc3ccccc3N(Cc3cccc(Cl)c3)C2=O)cc1 (stereo unspecified)	90 to 101
Cc1cc(C2CCC2)n2nc(S(=O)(=O)Nc3c(Cl)cccc3Cl)nc2n1	260
Cc1cc(Cl)cc(C(=O)Nc2cccc(Cl)c2)n1	174

SMILES	melting point [°C]
CC1(C)Oc2ccc(C#N)cc2[C@@H](NC(=O)Nc2ccc3c(c2)CN(C(=O)OCC(Cl)(Cl)Cl)C3)[C@@H]1O	201 to 203
CCC(=Cc1cccc([N+](=O)[O-])c1)[N+](=O)[O-]	68 to 72
Nc1nc2c(c(Nc3cccc(Br)c3)n1)-c1ccccc1C2	233 to 236
CN(SN1CCOCC1)C(=O)Nc1ccc(Cl)c(Cl)c1	142
O=C(O)/C=C/c1ccc(-c2nc3c(=O)n(CC4CC4)c(=O)n(CC4CC4)c3[nH]2)cc1	> 250
CS(=O)(=O)c1ccc(-c2cnn(C3CCc4ccccc43)c(=O)c2-c2ccc(F)cc2)cc1 (stereo unspecified)	128 to 130
Cc1cccc2c1nc(-c1c(F)cccc1F)n2Cc1c(F)cccc1F	182 to 186
CC#CCC(CC#CC)(C(=O)O)S(=O)(=O)c1ccc(N2CCC(NC[C@H](O)c3ccc(O)c(NS(C)(=O)=O)c3)CC2)cc1	175 to 177
Cc1ccc(Cn2c(=O)c3c(N4CCN(C)CC4)cc(Cl)cc3n(Cc3ccccc3)c2=O)cc1C	96 to 99
Clc1ncc(OC[C@@H]2CCCN2)cc1-c1ccccc1	75 to 80
CC(=O)C1CCC2C3CCC4CC(O)CCC4(C)C34OC4CC12C (stereo unspecified)	160 to 162
CC(C)N1C(N)=NS(=O)(=O)NC1Oc1ccc([N+](=O)[O-])cc1 (stereo unspecified)	132 to 136
CCOCc1nc2c(N)nc(C)c(C)c2n1CCOCCCc1nccs1	91 to 92
C=CCC1(c2ccc(Br)cc2)C2CCC(C(=O)C2)C1Nc1ccc(OC)cc1 (stereo unspecified)	68 to 69
CCc1cc(Cl)c(OC)c(C(=O)N[C@H]2CCN(CCCC(=O)N3CCCC3)C[C@H]2OC)c1O (relative stereo)	90.8
O=C(CNCCO)Nc1ccccn1	114 to 115
COc1ccc(F)c2c1OC(CN1CC(C)(C)Cn3c1nc(-c1ccncn1)cc3=O)CC2 (racemic)	136 to 138
O=C(O)[C@@H]1CSC(=O)N1Cc1ccccc1	95 to 97
C=CCc1c(O)ccc2c1CCC(=O)N2CC=C(C)C	182 to 184
NC(=O)c1ccnc(OCc2nc3cc(Cl)ccc3s2)c1	220 to 222
Cc1cccc(N(CCO)Cc2ccc3nc(N)n(Cc4nc(C)ccc4O)c3c2)c1	210
O=C(Nc1ccc2ncnc(Nc3cc(Cl)c(Cl)cc3F)c2c1)C(Cl)Cl	> 300
CCCCCCCCCc1cc2ccc(C(=O)O)cc2[nH]1	166 to 169
COc1ccc2c(c1)C=C(C=O)CO2	49 to 50

SMILES	melting point [°C]
CCc1ccc(-c2cc3c(O)cccc3o2)s1	87 to 90
Cc1cc(C)c2cccc(OCc3c(Cl)ccc(S(=O)(=O)N4CCC[C@H]4C(=O)NCCCNC(=O)c4cccc(C(N)=NO)c4)c3Cl)c2n1	108 to 110
CNc1ccc(OC2CCN(c3ccncc3)CC2)cc1	161 to 164
CC1SC(=O)NN=C1c1ccc2c(c1)C(=NNc1ccc(C(C)(C)C)cc1)C(=O)N2 (stereo unspecified)	299
CC(C)CCCC(C)C1CCC2C3CC=C4CCCCC4(C)C3CCC12C (stereo unspecified)	90 to 92
CCCCCCCCCCCCCCCCCCNC(=O)NCCCCCCCCN	120 to 145
CN1CCN(c2cccc3c2C[C@H](N(C)C(=O)c2ccc(C(F)(F)F)cc2)CC3)CC1	123 to 125
COCC(=O)[C@H](Cc1ccccc1)NC(=O)[C@H](CC(C)C)NC(=O)OCc1ccccc1	87 to 92
Cc1ccc(NC(=O)c2cc([N+](=O)[O-])ccc2NC(=O)CF)c(C)c1	227 to 229
CC(C)(C)OC(=O)NCc1ccc(C(=O)Nc2ccccc2N)cc1	160 to 162
Cc1ccn(-c2ccc(S(C)(=O)=O)cc2)c1-c1ccc(Cl)cc1	173 to 174
C#CC[C@H](c1nc2cc(Cl)ccc2c(=O)n1Nc1ccccc1)N(CCCN)C(=O)c1ccc(C)c(F)c1F	175 to 180
NC(=O)N(CCCOc1ccc(C(=O)O)cc1)c1ccc(Cl)cc1	172 to 174
[N-]=[N+]=NC1(CO)OC(n2ccc(=O)[nH]c2=O)C(O)C1O (stereo unspecified)	86 to 93
O=C(O)CCCC(=O)c1ccc2c(c1)CCO2	131 to 133
CCc1cc(C(=O)c2ccccc2Cl)c(-n2c(C)nnc2CNC(=O)/C=C/c2ccccc2)s1	150 to 151
CCOC(=O)C1CC(O)c2c(C)c(O)c(C)c(C)c2O1 (stereo unspecified)	138 to 144
COc1ccc(C(C)N(C)CCCOc2ccc(S(=O)(=O)c3ncc(-c4ccccc4)n3-c3ccccc3)cc2)cc1OC (stereo unspecified)	162
CCC(=O)Nc1cc(-c2sc(C(C)O)nc2-c2cccc(C)c2)ccn1 (stereo unspecified)	115 to 116
CCOC(C)n1c(CCc2cccc(O)c2)nc(-c2ccccc2)c1-c1ccccc1 (stereo unspecified)	166 to 167
Fc1ccc(-c2ccc(-c3cn([C@H]4CN5CCC4CC5)nn3)cc2)cn1	181
CCOC(=O)c1n[nH]cc1-c1ccccc1	164 to 165
O=C(Nc1ccc(C(=O)N2Cc3cccn3Cc3ccccc32)c(Cl)c1)c1ccccc1-c1cccs1	132 to 136
COC(=O)c1ccc(S(C)(=O)=O)c(CBr)c1Cl	77 to 78
